Where two headings read alike, the source gives them in different places. Numbered stars: 1 amine (or outer) side, 2 acyl side, 3 side chain; on linkers, the order of the positions; unused ones are H or OH. Square brackets hold non-standard residues; d marks the D form. Side chains are listed from the residue outwards. Peptide text beside a SMILES is read from it. * marks the point of attachment. C20 diacid = O=C(O)CCCCCCCCCCCCCCCCCCC(=O)*; γGlu = O=C(O)[C@H](CCC(=O)[*:2])N[*:1]; AEEA = NCCOCCOCC(=O)O; Aib = CC(C)(N)C(=O)O
Tests used:
GLP1R = GLP1R (Homo sapiens, UniProt P43220); assay: hGLP1R potency, cAMP accumulation in CHO-K1 cells stably overexpressing hGLP1R; type: cell-based; set-up: host or cells: CHO-K1; settings: for EC50: cAMP accumulation; for SCTR EC50/GLP1R EC50 ratio: cAMP accumulation in CHO-K1 cells
Procedure, shortened: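 Thawed cells go straight into buffer containing 0.5 mM IBMX and 0.05% casein, get graded compound doses for 30 min at room temperature, and are then assayed for accumulated cAMP by time-resolved FRET. Human GLP-1(7-36) serves as positive control; EC50 is derived by nonlinear regression.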

[1] = Turbidity of crude library peptides (absorbance at 600 nm); type: physicochemical; settings: Physical stability of peptides
Procedure, shortened: (§1)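 Crude peptides at 267 μM in 50 mM sodium acetate pH 4.0 or 50 mM sodium phosphate pH 7.0, pre-incubated 1-2 h at room temperature, then 4 μM final ThT added. Turbidity read first as A600. ThT fluorescence (ex 450/em 480 nm) read every 10 min for 72 h at 40° C, with 5 min shaking before each read; fibril formation = average emission.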

[2] = Fibril formation of crude library peptides (Thioflavin T); type: physicochemical; set-up: key: average ThT fluorescence emission at 480 nm (ex 450 nm), raw units; settings: Physical stability of peptides
Procedure, shortened: as §1

SCTR = SCTR (Homo sapiens, UniProt P47872); assay: hSCTR potency, cAMP accumulation in CHO-K1 cells stably overexpressing hSCTR; type: cell-based; set-up: alternatively Euroscreen ES-712-AF; FAST-0161L; host or cells: CHO-K1; settings: cAMP accumulation
Procedure, shortened: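 Read-out is TR-FRET cAMP detection, recorded one hour after reagent addition, in CHO-K1 cells stably overexpressing hSCTR. Cells in DPBS containing 0.05% casein and 0.5 mM IBMX are exposed to graded peptide doses for 30 min at room temperature, with human secretin as reference agonist.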

[3] = CHO-K1 cells overexpressing hGLP1R, read-out: hGLP1R pEC50 (converted)
[4] = selectivity for hGLP1R over hSCTR
[5] = CHO-K1 cells overexpressing hSCTR, read-out: hSCTR pEC50 (converted)

Chain of SCTR (P47872 23-440): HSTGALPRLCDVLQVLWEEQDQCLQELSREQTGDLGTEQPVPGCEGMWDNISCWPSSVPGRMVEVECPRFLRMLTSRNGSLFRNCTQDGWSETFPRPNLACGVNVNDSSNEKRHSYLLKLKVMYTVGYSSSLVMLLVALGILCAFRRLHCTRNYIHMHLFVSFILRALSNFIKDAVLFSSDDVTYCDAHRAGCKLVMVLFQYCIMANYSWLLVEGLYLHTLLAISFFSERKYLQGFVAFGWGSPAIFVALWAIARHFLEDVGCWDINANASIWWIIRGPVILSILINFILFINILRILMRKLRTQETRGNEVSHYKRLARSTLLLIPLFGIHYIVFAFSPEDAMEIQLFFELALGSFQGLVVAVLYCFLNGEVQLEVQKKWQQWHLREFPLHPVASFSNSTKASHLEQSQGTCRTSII
Chain of GLP1R (P43220 24-463): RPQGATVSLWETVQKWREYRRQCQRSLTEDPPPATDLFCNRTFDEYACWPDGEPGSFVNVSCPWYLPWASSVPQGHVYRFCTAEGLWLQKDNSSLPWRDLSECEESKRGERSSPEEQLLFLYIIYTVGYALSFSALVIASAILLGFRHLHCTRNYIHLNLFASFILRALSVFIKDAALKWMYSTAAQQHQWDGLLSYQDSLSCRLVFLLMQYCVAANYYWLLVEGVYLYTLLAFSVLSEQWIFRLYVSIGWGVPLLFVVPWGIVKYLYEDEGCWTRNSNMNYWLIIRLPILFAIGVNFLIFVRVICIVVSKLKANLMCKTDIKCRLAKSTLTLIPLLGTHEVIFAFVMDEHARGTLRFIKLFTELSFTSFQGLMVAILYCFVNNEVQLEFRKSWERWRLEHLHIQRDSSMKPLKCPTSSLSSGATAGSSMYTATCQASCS

Row | EC50 (GLP1R; [3]) | SCTR EC50/GLP1R EC50 ratio (GLP1R; [4]) | Turbidity (pH 7) [1] | Fibril formation [2] | EC50 (SCTR; [5]) | EC50 (GLP1R; CHO-K1 cells stably overexpressing hGLP1R, read-out: hGLP1R potency (pEC50) (converted)) | SCTR EC50/GLP1R EC50 ratio (GLP1R; selectivity ratio, hSCTR vs hGLP1R) | EC50 (SCTR; CHO-K1 cells stably overexpressing hSCTR, read-out: hSCTR potency (pEC50) (converted)) | Selectivity (GLP1R; SCTR EC50/GLP1R EC50 ratio) | EC50 (GLP1R; CHO-K1 cells overexpressing hGLP1R, read-out: pEC50 hGLPR1 (converted)) | EC50 (SCTR; CHO-K1 cells overexpressing hSCTR, read-out: pEC50 hSCTR (converted)) | Structure (SMILES)
1 | 0.0126 nM | 2569 | 0.09 | 3306 | 31.6 nM |  |  |  |  |  |  | CC(C)C[C@H](NC(=O)[C@H](Cc1ccccc1)NC(=O)[C@H](CCCNC(=N)N)NC(=O)[C@H](CCC(N)=O)NC(=O)[C@H](CC(C)C)NC(=O)C(C)(C)NC(=O)[C@H](C)NC(=O)[C@H](CCC(=O)O)NC(=O)[C@H](CCC(=O)O)NC(=O)[C@H](CCCCNC(=O)COCCOCCNC(=O)COCCOCCNC(=O)CC[C@H](NC(=O)CCCCCCCCCCCCCCCCCCC(=O)O)C(=O)O)NC(=O)[C@H](CC(C)C)NC(=O)[C@@H](NC(=O)[C@H](CO)NC(=O)[C@@H](NC(=O)[C@H](CC(=O)O)NC(=O)[C@H](CO)NC(=O)[C@@H](NC(=O)[C@H](Cc1ccccc1)NC(=O)[C@@H](NC(=O)CNC(=O)[C@H](CCC(=O)O)NC(=O)C(C)(C)NC(=O)[C@@H](N)Cc1c[nH]cn1)[C@@H](C)O)[C@@H](C)O)C(C)C)C(C)C)C(=O)N[C@@H](CCC(=O)O)C(=O)N[C@@H](Cc1c[nH]cn1)C(=O)N[C@@H](CC(C)C)C(=O)N[C@H](C(N)=O)C(C)C [compound 138] (H-H[Aib]EGTFTSDVSVLK([AEEA-AEEA-γGlu-C20 diacid])EEA[Aib]LQRFLEHLV-NH2)
2 |  |  | 0.61 | 120310 |  | 0.0794 nM | 904 | 63.1 nM |  |  |  | CC[C@H](C)[C@H](NC(=O)[C@H](Cc1ccccc1)NC(=O)[C@H](CCCNC(=N)N)NC(=O)[C@H](CCC(N)=O)NC(=O)[C@H](CC(C)C)NC(=O)[C@H](C)NC(=O)[C@H](C)NC(=O)CNC(=O)[C@H](CCC(=O)O)NC(=O)[C@H](CC(C)C)NC(=O)[C@H](CC(C)C)NC(=O)[C@H](Cc1c[nH]c2ccccc12)NC(=O)[C@H](CO)NC(=O)[C@H](Cc1c[nH]c2ccccc12)NC(=O)[C@H](CC(=O)O)NC(=O)[C@H](CO)NC(=O)[C@@H](NC(=O)[C@H](Cc1ccccc1)NC(=O)[C@@H](NC(=O)CNC(=O)[C@H](CCC(=O)O)NC(=O)C(C)(C)NC(=O)[C@@H](N)Cc1c[nH]cn1)[C@@H](C)O)[C@@H](C)O)C(=O)N[C@@H](CCC(N)=O)C(=O)N[C@@H](Cc1c[nH]c2ccccc12)C(=O)N[C@@H](CC(C)C)C(=O)N[C@H](C(N)=O)C(C)C [compound 191] (H-H[Aib]EGTFTSDWSWLLEGAALQRFIQWLV-NH2)
3 | 0.0398 nM | 41049 | 0.08 | 4465 | 1580 nM |  |  |  |  |  |  | CC(C)C[C@H](NC(=O)[C@H](Cc1ccccc1)NC(=O)[C@H](CCCNC(=N)N)NC(=O)[C@H](CCC(N)=O)NC(=O)[C@H](CC(C)C)NC(=O)C(C)(C)NC(=O)[C@H](C)NC(=O)[C@H](CCC(=O)O)NC(=O)[C@H](CCC(=O)O)NC(=O)C(C)(C)NC(=O)[C@H](CC(C)C)NC(=O)[C@H](Cc1ccc(O)cc1)NC(=O)[C@H](CO)NC(=O)[C@@H](NC(=O)[C@H](CC(=O)O)NC(=O)[C@H](CO)NC(=O)[C@@H](NC(=O)[C@H](Cc1ccccc1)NC(=O)[C@@H](NC(=O)CNC(=O)[C@H](CCC(=O)O)NC(=O)C(C)(C)NC(=O)[C@@H](N)Cc1c[nH]cn1)[C@@H](C)O)[C@@H](C)O)C(C)C)C(=O)N[C@@H](CCC(=O)O)C(=O)N[C@@H](CCCCNC(=O)COCCOCCNC(=O)COCCOCCNC(=O)CC[C@H](NC(=O)CCCCCCCCCCCCCCCCCCC(=O)O)C(=O)O)C(=O)N[C@@H](CC(C)C)C(=O)N[C@H](C(N)=O)C(C)C [compound 158] (H-H[Aib]EGTFTSDVSYL[Aib]EEA[Aib]LQRFLEK([AEEA-AEEA-γGlu-C20 diacid])LV-NH2)
4 | 0.0158 nM | 30839 | 0.53 | 260000 | 501 nM |  |  |  |  |  |  | CC[C@H](C)[C@H](NC(=O)[C@H](Cc1ccccc1)NC(=O)[C@H](CCCNC(=N)N)NC(=O)[C@H](CCC(N)=O)NC(=O)[C@H](CC(C)C)NC(=O)[C@H](C)NC(=O)[C@H](C)NC(=O)CNC(=O)[C@H](CCC(=O)O)NC(=O)[C@H](CC(C)C)NC(=O)[C@H](CC(C)C)NC(=O)[C@H](Cc1ccccc1)NC(=O)[C@H](CO)NC(=O)[C@@H](NC(=O)[C@H](CC(=O)O)NC(=O)[C@H](CO)NC(=O)[C@@H](NC(=O)[C@H](Cc1ccccc1)NC(=O)[C@@H](NC(=O)CNC(=O)[C@H](CCC(=O)O)NC(=O)C(C)(C)NC(=O)[C@@H](N)Cc1c[nH]cn1)[C@@H](C)O)[C@@H](C)O)C(C)C)C(=O)N[C@@H](CCC(N)=O)C(=O)N[C@@H](Cc1c[nH]c2ccccc12)C(=O)N[C@@H](CC(C)C)C(=O)N[C@H](C(N)=O)C(C)C [compound 177] (H-H[Aib]EGTFTSDVSFLLEGAALQRFIQWLV-NH2)
5 | 10 nM | 671 | 0.11 | 3764 | 6310 nM |  |  |  |  |  |  | CC[C@H](C)[C@H](NC(=O)[C@H](Cc1ccccc1)NC(=O)[C@H](CCCNC(=N)N)NC(=O)[C@H](CCC(N)=O)NC(=O)[C@H](CC(C)C)NC(=O)[C@H](C)NC(=O)[C@H](C)NC(=O)CNC(=O)[C@H](CCC(=O)O)NC(=O)[C@H](CC(C)C)NC(=O)[C@H](CC(C)C)NC(=O)CNC(=O)[C@H](CO)NC(=O)[C@@H]1CCCN1C(=O)[C@H](CC(=O)O)NC(=O)[C@H](CO)NC(=O)[C@@H](NC(=O)[C@H](Cc1ccccc1)NC(=O)[C@@H](NC(=O)CNC(=O)[C@H](CCC(=O)O)NC(=O)C(C)(C)NC(=O)[C@@H](N)Cc1c[nH]cn1)[C@@H](C)O)[C@@H](C)O)C(=O)N[C@@H](CCC(N)=O)C(=O)N[C@@H](Cc1c[nH]c2ccccc12)C(=O)N[C@@H](CC(C)C)C(=O)N[C@H](C(N)=O)C(C)C [compound 123] (H-H[Aib]EGTFTSDPSGLLEGAALQRFIQWLV-NH2)
6 | 0.0501 nM | 3127 | 0.67 | 172171 | 158 nM |  |  |  |  |  |  | CC[C@H](C)[C@H](NC(=O)[C@H](Cc1ccccc1)NC(=O)[C@H](CCCNC(=N)N)NC(=O)[C@H](CCC(N)=O)NC(=O)[C@H](CC(C)C)NC(=O)[C@H](C)NC(=O)[C@H](C)NC(=O)CNC(=O)[C@H](CCC(=O)O)NC(=O)[C@H](CC(C)C)NC(=O)[C@H](CC(C)C)NC(=O)[C@H](Cc1c[nH]c2ccccc12)NC(=O)[C@H](CO)NC(=O)[C@@H](NC(=O)[C@H](CC(=O)O)NC(=O)[C@H](CO)NC(=O)[C@@H](NC(=O)[C@H](Cc1ccccc1)NC(=O)[C@@H](NC(=O)CNC(=O)[C@H](CCC(=O)O)NC(=O)C(C)(C)NC(=O)[C@@H](N)Cc1c[nH]cn1)[C@@H](C)O)[C@@H](C)O)C(C)C)C(=O)N[C@@H](CCC(N)=O)C(=O)N[C@@H](Cc1c[nH]c2ccccc12)C(=O)N[C@@H](CC(C)C)C(=O)N[C@H](C(N)=O)C(C)C [compound 183] (H-H[Aib]EGTFTSDVSWLLEGAALQRFIQWLV-NH2)
7 |  |  | 0.08 | 13795 |  |  |  |  | 4851 | 0.0158 nM | 79.4 nM | CC(C)C[C@H](NC(=O)[C@H](CCC(=O)O)NC(=O)[C@H](CCCCNC(=O)COCCOCCNC(=O)COCCOCCNC(=O)CC[C@H](NC(=O)CCCCCCCCCCCCCCCCCCC(=O)O)C(=O)O)NC(=O)[C@H](CC(C)C)NC(=O)[C@H](CCCNC(=N)N)NC(=O)[C@H](CO)NC(=O)[C@@H](NC(=O)[C@H](CC(=O)O)NC(=O)[C@H](CO)NC(=O)[C@@H](NC(=O)[C@H](Cc1ccccc1)NC(=O)[C@@H](NC(=O)CNC(=O)[C@H](CCC(=O)O)NC(=O)C(C)(C)NC(=O)[C@@H](N)Cc1c[nH]cn1)[C@@H](C)O)[C@@H](C)O)C(C)C)C(=O)N[C@@H](C)C(=O)N[C@@H](C)C(=O)N[C@@H](CCC(N)=O)C(=O)N[C@@H](CCC(N)=O)C(=O)N[C@@H](CCCNC(=N)N)C(=O)N[C@@H](Cc1ccccc1)C(=O)N[C@@H](CC(C)C)C(=O)N[C@@H](CCC(=O)O)C(=O)N[C@@H](Cc1c[nH]cn1)C(=O)N[C@@H](CC(C)C)C(=O)N[C@H](C(N)=O)C(C)C [compound 3] (H-H[Aib]EGTFTSDVSRLK([AEEA-AEEA-γGlu-C20 diacid])ELAAQQRFLEHLV-NH2)

Source: US20260201008A1, “SECRETIN-DERIVED GLP1R SELECTIVE AGONISTS” (GUBRA A/S, priority 2023, published 2026)
